Experiments:
Type in all cases: cell-based
[1] = test system: Ba/F3 parental generation cells; assay: Cytotoxicity assay (CellTiter-Glo), Ba/F3 parental; conditions: Mus musculus, BaF3, Table 2, 72 hrs
Description: (§1) Inhibitory effects of example compounds on the activity of Ba/F3 parental generation, Ba/F3 KIF5B-RET, Ba/F3 KIF5B-RET^V804M, Ba/F3 KIF5B-RET^V804L, Ba/F3 KIF5B-RET^G810R, Ba/F3 FLT3-ITD, Ba/F3 FLT3-ITD^D835Y, Ba/F3 FLT3-ITD^F691L cells were determined.
(§2) Materials and reagents: fetal bovine serum FBS (GIBCO, Cat #10099141), CellTiter-Glo® Luminescent Cell Viability Assay kit (Promega, Cat #G7572), 96-well black-wall clear flat-bottom plate (Corning®, Cat #3603).
(§3) 1. Cells in the logarithmic growth phase were harvested and counted with a […]. Cell viability was detected by a trypan blue exclusion method, ensuring that cell viability was 90% or more; 2. Cell concentration was adjusted to about 3000 cells/well; 90 μl of cell suspension was added to each well of the 96-well plate; 3. The cells in the 96-well plate were incubated overnight under the condition of 37° C., 5% CO2, and 95% humidity.
(§4) 1. A series of compound solutions were formulated by 3.16-fold serial dilution starting from a concentration of 10 μM, resulting in 9 concentrations. 10 μL of the compound solutions were added in each well of the 96-well plate seeded with cells in triplicate for each compound concentration; 2. The cells in the 96-well plate added with compounds were further incubated under the condition of 37° C., 5% CO2, and 95% humidity for 72 hrs, and then CTG analysis was carried out.
(§5) 1. CTG reagent was thawed, and the cell plate was equilibrated at room temperature for 30 minutes; 2. An equal volume […] of CTG solution was added to each well; 3. The cell plate was shaken on an orbital shaker for 5 minutes to lyse the cells; 4. The cell plate was placed at RT for 20 minutes to stabilize the luminescence signal; 5. Luminescence value was read.
(§6) Data were Analyzed by GraphPad Prism 5.0 Software, and Fitted by Nonlinear S-Curve Regression to obtain a dose-response curve, from which IC50 values were calculated.
(§7) Cell survival rate (%)=(luminescence value of drug to be tested−luminescence value of culture medium control)/(luminescence value of cell control−luminescence value of culture medium control)×100%.

[2] = target: T1, Ba/F3 FLT3-ITD^D835Y cells (Homo sapiens, UniProt P36888, D835Y, cells depend on it, form not given); assay: Cytotoxicity assay (CellTiter-Glo), Ba/F3 FLT3-ITD D835Y; conditions: CellTiter-Glo, 72 hrs; read-out: Ba/F3 FLT3-ITD^D835Y IC50
T1 construct: Ba/F3 FLT3-ITD^D835Y IC50 (nM); other: CellTiter-Glo, 72 hrs
T1 sequence (P36888 1-993 D835Y): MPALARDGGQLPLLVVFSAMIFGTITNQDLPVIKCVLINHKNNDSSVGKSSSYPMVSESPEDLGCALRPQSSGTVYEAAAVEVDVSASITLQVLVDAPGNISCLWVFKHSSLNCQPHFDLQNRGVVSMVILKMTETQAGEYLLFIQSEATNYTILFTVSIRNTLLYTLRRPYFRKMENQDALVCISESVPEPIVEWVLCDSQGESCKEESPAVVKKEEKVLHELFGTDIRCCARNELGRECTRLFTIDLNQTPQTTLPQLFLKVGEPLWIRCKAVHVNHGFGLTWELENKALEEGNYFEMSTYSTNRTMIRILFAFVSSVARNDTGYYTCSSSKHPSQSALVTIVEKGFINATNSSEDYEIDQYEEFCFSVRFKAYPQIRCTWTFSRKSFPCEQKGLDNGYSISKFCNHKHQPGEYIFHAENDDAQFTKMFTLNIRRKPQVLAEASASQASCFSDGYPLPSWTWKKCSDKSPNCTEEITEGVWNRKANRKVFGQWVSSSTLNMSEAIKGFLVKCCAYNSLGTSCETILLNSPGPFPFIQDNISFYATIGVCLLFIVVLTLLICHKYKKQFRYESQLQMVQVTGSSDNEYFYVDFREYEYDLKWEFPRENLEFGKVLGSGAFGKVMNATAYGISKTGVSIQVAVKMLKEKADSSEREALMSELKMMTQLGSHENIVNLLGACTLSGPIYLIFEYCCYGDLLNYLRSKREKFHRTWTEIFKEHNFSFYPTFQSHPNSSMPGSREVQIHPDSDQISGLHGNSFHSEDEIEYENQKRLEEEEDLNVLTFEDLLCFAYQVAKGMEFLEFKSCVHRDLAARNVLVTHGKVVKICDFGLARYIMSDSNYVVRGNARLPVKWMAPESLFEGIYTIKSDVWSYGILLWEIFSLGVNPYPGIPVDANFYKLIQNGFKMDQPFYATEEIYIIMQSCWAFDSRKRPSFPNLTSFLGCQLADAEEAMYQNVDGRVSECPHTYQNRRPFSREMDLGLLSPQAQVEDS
Description: as §1, §2, §3, §4, §5, §6, §7

[3] = target: T2, Ba/F3 KIF5B-RET^V804L cells (Homo sapiens, UniProt P07949, V804L, cells depend on it); assay: Cytotoxicity assay (CellTiter-Glo), Ba/F3 KIF5B-RET V804L; conditions: CellTiter-Glo, 72 hrs; read-out: Ba/F3 KIF5B-RET^V804L IC50
T2 construct: Ba/F3 KIF5B-RET^V804L IC50 (nM); other: CellTiter-Glo, 72 hrs; fused on or other part: P33176 (Kinesin-1 heavy chain)
Description: as §1, §2, §3, §4, §5, §6, §7

[4] = test system: Ba/F3 KIF5B-RET^V804L cells; assay: as above; conditions: ratio of Ba/F3 parental IC50 to Ba/F3 KIF5B-RET^V804L IC50
Description: as §1, §2, §3, §4, §5, §6, §7

[5] = target: T3, Ba/F3 KIF5B-RET^G810R cells (Homo sapiens, UniProt P07949, G810R, cells depend on it); assay: Cytotoxicity assay (CellTiter-Glo), Ba/F3 KIF5B-RET G810R; conditions: CellTiter-Glo, 72 hrs; read-out: Ba/F3 KIF5B-RET^G810R IC50
T3 construct: Ba/F3 KIF5B-RET^G810R IC50 (nM); other: CellTiter-Glo, 72 hrs; fused on or other part: P33176 (Kinesin-1 heavy chain)
Description: as §1, §2, §3, §4, §5, §6, §7

[6] = test system: Ba/F3 KIF5B-RET^G810R cells; assay: as above; conditions: ratio of Ba/F3 parental IC50 to Ba/F3 KIF5B-RET^G810R IC50
Description: as §1, §2, §3, §4, §5, §6, §7

[7] = test system: Ba/F3 KIF5B-RET^V804M cells; assay: Cytotoxicity assay (CellTiter-Glo), Ba/F3 KIF5B-RET V804M; conditions: ratio of Ba/F3 parental IC50 to Ba/F3 KIF5B-RET^V804M IC50
Description: as §1, §2, §3, §4, §5, §6, §7

[8] = target: T4, Ba/F3 KIF5B-RET^V804M cells (Homo sapiens, UniProt P07949, V804M, cells depend on it); assay: as above; conditions: CellTiter-Glo, 72 hrs; read-out: Ba/F3 KIF5B-RET^V804M IC50
T4 construct: Ba/F3 KIF5B-RET^V804M IC50 (nM); other: CellTiter-Glo, 72 hrs; fused on or other part: P33176 (Kinesin-1 heavy chain)
Description: as §1, §2, §3, §4, §5, §6, §7

T3 sequence (P07949 whole entry G810R, the tested form may be a part): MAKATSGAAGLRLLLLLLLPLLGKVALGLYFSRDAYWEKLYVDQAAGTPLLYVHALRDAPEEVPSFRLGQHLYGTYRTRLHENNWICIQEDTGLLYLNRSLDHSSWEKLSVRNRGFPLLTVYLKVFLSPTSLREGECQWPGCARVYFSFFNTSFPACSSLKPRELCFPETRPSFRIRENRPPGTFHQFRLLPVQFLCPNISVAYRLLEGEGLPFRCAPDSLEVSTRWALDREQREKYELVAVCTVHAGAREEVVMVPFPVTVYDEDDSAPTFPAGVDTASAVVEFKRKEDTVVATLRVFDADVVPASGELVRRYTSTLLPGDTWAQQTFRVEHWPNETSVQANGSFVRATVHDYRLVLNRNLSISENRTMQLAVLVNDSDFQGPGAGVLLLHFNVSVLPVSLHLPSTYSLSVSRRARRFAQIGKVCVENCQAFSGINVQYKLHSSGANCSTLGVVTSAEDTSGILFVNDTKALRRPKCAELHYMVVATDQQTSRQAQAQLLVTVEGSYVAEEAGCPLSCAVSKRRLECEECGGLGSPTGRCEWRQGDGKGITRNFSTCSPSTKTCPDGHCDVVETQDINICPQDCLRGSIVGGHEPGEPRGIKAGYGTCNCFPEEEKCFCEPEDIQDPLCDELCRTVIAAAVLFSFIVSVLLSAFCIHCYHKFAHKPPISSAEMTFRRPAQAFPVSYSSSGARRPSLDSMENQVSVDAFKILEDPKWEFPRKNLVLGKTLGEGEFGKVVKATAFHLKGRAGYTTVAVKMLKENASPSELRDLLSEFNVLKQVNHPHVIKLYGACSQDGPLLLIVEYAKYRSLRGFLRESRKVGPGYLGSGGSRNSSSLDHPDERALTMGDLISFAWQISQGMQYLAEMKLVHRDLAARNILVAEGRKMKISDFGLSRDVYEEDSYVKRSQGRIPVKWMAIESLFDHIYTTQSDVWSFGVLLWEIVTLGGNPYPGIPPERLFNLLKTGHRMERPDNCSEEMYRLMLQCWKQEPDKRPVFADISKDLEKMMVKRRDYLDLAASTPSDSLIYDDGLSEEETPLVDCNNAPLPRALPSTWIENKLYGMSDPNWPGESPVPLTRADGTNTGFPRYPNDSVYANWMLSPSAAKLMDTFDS
T2 sequence (P07949 whole entry V804L, the tested form may be a part): as the sequence (P07949 whole entry G810R, the tested form may be a part) above, with V804L, R810G counted along it
T4 sequence (P07949 whole entry V804M, the tested form may be a part): as the sequence (P07949 whole entry G810R, the tested form may be a part) above, with V804M, R810G counted along it

| SMILES | IC50 [1] [nM] | GI50 [2] [nM] | GI50 [3] [nM] | Ba/F3 KIF5B-RET^V804L Selectivity on parental generation [4] | GI50 [5] [nM] | Ba/F3 KIF5B-RET^G810R Selectivity on parental generation [6] | Ba/F3 KIF5B-RET^V804M Selectivity on parental generation [7] | GI50 [8] [nM] |
| --- | --- | --- | --- | --- | --- | --- | --- | --- |
| CC(C)n1nc(-c2ccc(CC(=O)Nc3cc(C(C)(C)C(F)(F)F)on3)cn2)c2c(N)ncnc21 [Compound T-7, 2-(6-(4-amino-1-isopropyl-1H-pyrazolo[3,4-d]pyrimidin-3-yl)pyridin-3-yl)-N-(5-(1,1,1-trifluoro-2-methylprop-2-yl)isoxazol-3-yl)acetamide] | 328 | 5.57 | 55.7 | 5.9 | 6.92 | 47.4 | 95.9 | 3.42 |
| CC(C)n1nc(-c2ccc(NC(=O)Nc3cc(C(F)(F)F)ccc3F)cc2)c2c(N)ncnc21 [AD80, reference compound] | 812 | 30.1 | 9.05 | 89.7 | 7.88 | 103.0 | 75.2 | 10.8 |
| CC(C)n1cc(-c2ccc(CC(=O)Nc3cc(C(C)(C)C(F)(F)F)on3)cc2)c2c(N)ncnc21 [Compound T-3, 2-(4-(4-amino-7-isopropyl-7H-pyrrolo[2,3-d]pyrimidin-5-yl)phenyl)-N-(5-(1,1,1-trifluoro-2-methylprop-2-yl)isoxazol-3-yl)acetamide] | 724 | 2.92 | 3.63 | 199.6 | 3.84 | 188.7 | 225.7 | 3.21 |
| CC(C)n1nc(-c2ccc(CC(=O)Nc3cc(C(C)(C)C(F)(F)F)no3)cc2)c2c(N)ncnc21 [Compound T-8, 2-(4-(4-amino-1-isopropyl-1H-pyrazolo[3,4-d]pyrimidin-3-yl)phenyl)-N-(3-(1,1,1-trifluoro-2-methylprop-2-yl)isoxazol-5-yl)acetamide] | 3680 | 7.34 | 1.53 | 2403.3 | 2.39 | 1538.5 | 1021.4 | 3.6 |
| CC(C)n1nc(-c2ccc(CC(=O)Nc3cc(C(C)(C)C(F)(F)F)no3)cn2)c2c(N)ncnc21 [Compound T-9, 2-(6-(4-amino-1-isopropyl-1H-pyrazolo[3,4-d]pyrimidin-3-yl)pyridin-3-yl)-N-(3-(1,1,1-trifluoro-2-methylprop-2-yl)isoxazol-5-yl)acetamide] | 4120 | 46.9 | 49.3 | 83.5 | 47.7 | 86.3 | 137.7 | 29.9 |
| CC(C)n1nc(-c2ccc(NC(=O)Nc3cc(C(C)(C)C(F)(F)F)on3)cc2)c2c(N)ncnc21 [Compound T-2, 1-(4-(4-amino-1-isopropyl-1H-pyrazolo[3,4-d]pyrimidin-3-yl)phenyl)-3-(5-(1,1,1-trifluoro-2-methylprop-2-yl)isoxazol-3-yl)urea] | 338 | 6.05 | 5.39 | 62.68 | 2.98 | 113.4 | 128.0 | 2.64 |
| CC(C)n1nc(-c2ccc(CC(=O)Nc3cc(C(C)(C)C(F)(F)F)on3)c(F)c2)c2c(N)ncnc21 [Compound T-6, 2-(4-(4-amino-1-isopropyl-1H-pyrazolo[3,4-d]pyrimidin-3-yl)-2-fluorophenyl)-N-(5-(1,1,1-trifluoro-2-methylprop-2-yl)isoxazol-3-yl)acetamide] | 2100 | 9.6 | 5.8 | 361.3 | 2.92 | 717.6 | 211.7 | 9.9 |
| [2H]C([2H])([2H])C(n1nc(-c2ccc(CC(=O)Nc3cc(C(C)(C)C(F)(F)F)no3)cc2)c2c(N)ncnc21)C([2H])([2H])[2H] [Compound T-11, 2-(4-(4-amino-1-(propan-2-yl-1,1,1,3,3,3-d6)-1H-pyrazolo[3,4-d]pyrimidin-3-yl)phenyl)-N-(3-(1,1,1-trifluoro-2-methylpropan-2-yl)isoxazol-5-yl)acetamide] | 5510 | 17.9 | 6.1 | 902.8 | 5.86 | 939.8 | 1517.1 | 3.63 |

Source: patent publication US20220380375A1, “SUBSTITUTED AROMATIC FUSED RING DERIVATIVE AND COMPOSITION COMPRISING SAME, AND USE THEREOF” (Shenzhen TargetRx, Inc., priority 2019, published 2022)
